Reference: US20250136581A1, “SUBSTITUTED TRIAZOLE DERIVATIVE, PREPARATION METHOD THEREFOR, PHARMACEUTICAL COMPOSITION THEREOF, AND USE THEREOF” (SHANGHAI SIMR BIOTECHNOLOGY CO., LTD., priority 2021, published 2025)

Key:
[1] = target: human α5β3γ2 receptors (α5-GABAA receptor) (Homo sapiens (Human), UniProt P18507+P31644); experiment: 3H-flunitrazepam competition binding, human α5β3γ2 GABAA receptor; settings: HEK293 cell membranes, 1 nM 3H-flunitrazepam; read-out: α5-GABAAR Ki
Outline: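 Radioligand displacement of 1 nM 3H-flunitrazepam from membranes of HEK293 lines stably expressing the human subtypes, 1 h at room temperature, compound in 8-point 4-fold series. Bound label on GF/C filters counted by scintillation; Ki derived from fitted IC50, with flumazenil as low control.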

[2] = target: α5-GABAA receptor (α5, β3, γ2 subunits) (Homo sapiens (Human), UniProt P18507+P31644); experiment: Whole cell patch clamp, inverse agonist efficacy in HEK293 cells expressing α5-GABAA receptor; type: cell-based; settings: GABA 0.05 μM, −60 mV; for inhibition at 0.1 µM: HEK293, drug 100 nM, read-out: Compound inverse agonist efficacy %
Outline: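 Compounds screened at 100 nM against current induced by 0.05 μM GABA in monoclonal HEK293 cells stably expressing α5β3γ2 GABAA receptors. Recording by whole-cell voltage clamp (−60 mV, pH 7.4 bath, CsCl pipette); efficacy calculated from leak-corrected currents before and after drug.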

Row | Ki [1] [nM] | inhibition at 0.1 µM [2] [%] | Compound inverse agonist efficacy % ([2]; drug 100 nM) [%] | Compound
1 | 2.31 | 49.6 | – | Cc1nnn(-c2ccc(C(F)F)cc2)c1COc1ccc(N2CC(C(=O)NC3CC3)C2)nn1 [Example 44, N-Cyclopropyl-1-(6-((1-(4-(difluoromethyl)phenyl)-4-methyl-1H-1,2,3-triazol-5-yl)methoxy)pyridazin-3-yl)azetidine-3-carboxamide]
2 | 2.13 | 51.5 | – | Cc1nnn(-c2ccc(C(F)F)cc2)c1COc1ccc(N2CCC2=O)nn1 [Example 18, 1-(6-((1-(4-(Difluoromethyl)phenyl)-4-methyl-1H-1,2,3-triazol-5-yl)methoxy)pyridazin-3-yl)azetidin-2-one]
3 | 12.3 | 50.6 | – | Cc1nnn(-c2ccc(C(F)F)cc2)c1COc1ccc(N2CC(C(=O)O)C2)nn1 [Example 37, 1-(6-((1-(4-(Difluoromethyl)phenyl)-4-methyl-1H-1,2,3-triazol-5-yl)methoxy)pyridazin-3-yl)azetidine-3-carboxylic acid]
4 | 1.19 | 40.3 | – | Cc1nnn(-c2ccc(C(F)F)cc2)c1COc1ccc(N2CC3COCCN3C2=O)nn1 (stereo not shown) [Example 180, 2-(6-((1-(4-(Difluoromethyl)phenyl)-4-methyl-1H-1,2,3-triazol-5-yl)methoxy)pyridazin-3-yl)hexahydro-3H-imidazo[5,1-c][1,4]oxazin-3-one]
5 | 9.03 | 52.8 | – | Cc1nnn(-c2ccc(C(F)F)cc2)c1COc1ccc(N2CCO[C@H](C(=O)O)C2)nn1 [Example 35, (S)-4-(6-((1-(4-(Difluoromethyl)phenyl)-4-methyl-1H-1,2,3-triazol-5-yl)methoxy)pyridazin-3-yl)morpholine-2-carboxylic acid]
6 | 0.75 | 49.2 | – | Cc1nnn(-c2ccc(C(F)F)cc2)c1COc1ccc(C2=CCCOC2)nn1 [Example 90, 3-((1-(4-(Difluoromethyl)phenyl)-4-methyl-1H-1,2,3-triazol-5-yl)methoxy)-6-(5,6-dihydro-2H-pyran-3-yl)pyridazine]
7 | 2.2 | 43.3 | – | Cc1nnn(-c2ccc(C(F)F)cc2)c1COc1ccc(N2CCN3CCOC[C@@H]3C2)nn1 [Example 13, (S)-8-(6-((1-(4-(Difluoromethyl)phenyl)-4-methyl-1H-1,2,3-triazol-5-yl)methoxy)pyridazin-3-yl)octahydropyrazino[2,1-c][1,4]oxazine]
8 | 4.07 | 52.7 | – | Cc1nnn(-c2ccc(C(F)F)cc2)c1COc1ccc(N2CC(CO)OC2=O)nn1 (stereo not shown) [Example 66, 3-(6-((1-(4-(Difluoromethyl)phenyl)-4-methyl-1H-1,2,3-triazol-5-yl)methoxy)pyridazin-3-yl)-5-(hydroxymethyl)oxazolidin-2-one]
9 | 0.58 | 49.1 | – | Cc1nnn(-c2ccc(C(F)F)cc2)c1COc1ccc(N2CCNC(=O)C2C)nn1 (stereo not shown) [Example 11, 4-(6-((1-(4-(Difluoromethyl)phenyl)-4-methyl-1H-1,2,3-triazol-5-yl)methoxy)pyridazin-3-yl)-3-methylpiperazin-2-one]

Second part, the molecule before the results:

Row | Compound | Ki [1] [nM] | inhibition at 0.1 µM [2] [%] | Compound inverse agonist efficacy % ([2]; drug 100 nM) [%]
10 | Cc1nnn(-c2ccc(C(F)F)cc2)c1COc1cnc(N2CCN3CCNC(=O)[C@@H]3C2)cn1 [Example 178, (S)-8-(5-((1-(4-(Difluoromethyl)phenyl)-4-methyl-1H-1,2,3-triazol-5-yl)methoxy)pyrazin-2-yl)hexahydro-2H-pyrazino[1,2-a]pyrazin-1(6H)-one] | 17.2 | 49.7 | –
11 | Cc1nnn(-c2ccc(CF)cc2)c1COc1ccc(N2CCN3CCNC(=O)[C@@H]3C2)nn1 [Example 162, (S)-8-(6-((1-(4-(Fluoromethyl)phenyl)-4-methyl-1H-1,2,3-triazol-5-yl)methoxy)pyridazin-3-yl)hexahydro-2H-pyrazino[1,2-a]pyrazin-1(6H)-one] | 2.58 | 47.7 | –
12 | O=C1CN(c2ccc(OCc3c(Cl)nnn3-c3ccc(F)cc3)nn2)CCN1 [Example 189, 4-(6-((4-Chloro-1-(4-fluorophenyl)-1H-1,2,3-triazol-5-yl)methoxy)pyridazin-3-yl)piperazin-2-one] | 9.44 | 42.1 | –
13 | Cc1nnn(-c2ccc(C(F)F)cc2)c1COc1ccc(N2CC(=O)N3CCN(C)CC3C2)nn1 (stereo not shown) [Example 69, 2-(6-((1-(4-(Difluoromethyl)phenyl)-4-methyl-1H-1,2,3-triazol-5-yl)methoxy)pyridazin-3-yl)-8-methylhexahydro-1H-pyrazino[1,2-a]pyrazin-4(6H)-one] | 0.9 | 55.1 | –
14 | O=C1CN(c2ccc(OCc3c(Cl)nnn3-c3ccc(C(F)F)cc3)nn2)CCN1 [Example 131, 4-(6-((4-Chloro-1-(4-(difluoromethyl)phenyl)-1H-1,2,3-triazol-5-yl)methoxy)pyridazin-3-yl)piperazin-2-one] | 1.34 | 47.6 | –
15 | CNC(=O)[C@@H]1CN(c2ccc(OCc3c(C)nnn3-c3ccc(C(F)F)cc3)nn2)CCN1 [Example 30, (S)-4-(6-((1-(4-(Difluoromethyl)phenyl)-4-methyl-1H-1,2,3-triazol-5-yl)methoxy)pyridazin-3-yl)-N-methylpiperazine-2-carboxamide] | 2.72 | 41.9 | –
16 | Cc1nnn(-c2ccc(C(F)F)cc2F)c1COc1ccc(N2CCN3CCNC(=O)[C@@H]3C2)nn1 [Example 168, (S)-8-(6-((1-(4-(Difluoromethyl)-2-fluorophenyl)-4-methyl-1H-1,2,3-triazol-5-yl)methoxy)pyridazin-3-yl)hexahydro-2H-pyrazino[1,2-a]pyrazin-1(6H)-one] | 2.84 | 42.4 | –
17 | Cc1nnn(-c2ccc(C(F)F)cc2)c1COc1ccc(N2CC(C(=O)N3CC4CC3CO4)C2)nn1 (stereo not shown) [Example 157, (2-Oxa-5-azabicyclo[2.2.1]heptan-5-yl)(1-(6-((1-(4-(difluoromethyl)phenyl)-4-methyl-1H-1,2,3-triazol-5-yl)methoxy)pyridazin-3-yl)azetidin-3-yl)methanone] | 3.53 | 44.2 | –
18 | Cc1nnn(-c2ccc(C(F)F)cc2)c1COc1ccc(N2CCN3C(C(C)C)CNC(=O)[C@@H]3C2)nn1 (stereo partly shown) [Example 207] | 4.92 | 51.9 | –
19 | O=C1CN(c2ccc(OCc3cnnn3-c3ccc(C(F)F)cc3)nn2)CCN1 [Example 132, 4-(6-((1-(4-(Difluoromethyl)phenyl)-1H-1,2,3-triazol-5-yl)methoxy)pyridazin-3-yl)piperazin-2-one] | 12.1 | 53.2 | –
20 | CCNC(=O)C1CN(c2ccc(OCc3c(C)nnn3-c3ccc(C(F)F)cc3)nc2)C1 [Example 159, 1-(6-((1-(4-(Difluoromethyl)phenyl)-4-methyl-1H-1,2,3-triazol-5-yl)methoxy)pyridin-3-yl)-N-ethylazetidine-3-carboxamide] | 20 | 49.9 | –
21 | Cc1nnn(-c2ccc(C(F)F)cc2)c1COc1ccc(N2CCN(CCN3CCC(F)(F)C3)C(=O)C2)nn1 [Example 110, 4-(6-((1-(4-(Difluoromethyl)phenyl)-4-methyl-1H-1,2,3-triazol-5-yl)methoxy)pyridazin-3-yl)-1-(2-(3,3-difluoropyrrolidin-1-yl)ethyl)piperazin-2-one] | 1.6 | 47.5 | –
22 | Cc1nnn(-c2ccc(C(F)F)cc2)c1COc1ccc(N2CCN(CC3CCCO3)C(=O)C2)nn1 (stereo not shown) [Example 96, 4-(6-((1-(4-(Difluoromethyl)phenyl)-4-methyl-1H-1,2,3-triazol-5-yl)methoxy)pyridazin-3-yl)-1-((tetrahydrofuran-2-yl)methyl)piperazin-2-one] | 1.34 | 46.5 | –
23 | CC(=O)N1CCN(c2ccc(OCc3c(C)nnn3-c3ccc(C(F)F)cc3)nn2)CC1 [Example 171, 1-(4-(6-((1-(4-(Difluoromethyl)phenyl)-4-methyl-1H-1,2,3-triazol-5-yl)methoxy)pyridazin-3-yl)piperazin-1-yl)ethan-1-one] | 1.07 | 42 | –
24 | Cc1nnn(-c2ccc(C(F)F)cc2)c1COc1ccc(N2CCN3CC(CC(C)C)NC(=O)[C@@H]3C2)nn1 (single isomer, unassigned) [Example 209] | 2.04 | – | −52.08
25 | Cc1nnn(-c2ccc(C(F)F)cc2)c1COc1ccc(N2CC(=O)N3CCN(Cc4ncccn4)CC3C2)nn1 (stereo not shown) [Example 92, 2-(6-((1-(4-(Difluoromethyl)phenyl)-4-methyl-1H-1,2,3-triazol-5-yl)methoxy)pyridazin-3-yl)-8-(pyrimidin-2-ylmethyl)octahydro-4H-pyrazino[1,2-a]pyrazin-4-one] | 1.1 | 49.7 | –
26 | Cc1nnn(-c2ccc(C(F)F)cc2)c1COc1ccc(N2CCN3CC(C(C)C)NC(=O)[C@@H]3C2)nn1 (stereo partly drawn) [Example 200, (9aS)-8-(6-((1-(4-(Difluoromethyl)phenyl)-4-methyl-1H-1,2,3-triazol-5-yl)methoxy)pyridazin-3-yl)-3-isopropylhexahydro-2H-pyrazino[1,2-a]pyrazin-1(6H)-one] | 1.9 | 60.1 | –
